According to patent US4310533A, “Guanidinobenzoic acid derivatives” (Ono Pharmaceutical Co., Ltd., priority 1979, dated 1982):
Counter-ions that a name gives are not always drawn.

Key:
plasmin [1] = conditions: prior art; cited from earlier work
trypsin = biological target: T1, trypsin (Bos taurus, UniProt P00760); test: Inhibitory activity on trypsin in vitro (hydrolysis of p-tosylarginine methyl ester); assay type: biochemical; conditions: trypsin 0.5 μg, 37° C., 30 minutes, read-out: 50% Inhibition Concentration (molar concentration), Anti-Trypsin
T1 sequence (P00760 24-246): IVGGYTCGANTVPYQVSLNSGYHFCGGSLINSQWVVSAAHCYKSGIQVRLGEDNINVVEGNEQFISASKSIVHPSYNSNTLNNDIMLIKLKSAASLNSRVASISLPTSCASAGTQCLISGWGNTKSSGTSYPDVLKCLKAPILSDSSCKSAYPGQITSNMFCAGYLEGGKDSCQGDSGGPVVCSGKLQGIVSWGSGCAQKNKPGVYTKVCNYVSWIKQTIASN
Experimental: The inhibitory activities on trypsin and plasmin in vitro were determined by the methods of M. Muramatsu et al. described in the Journal of Biochemistry, 58, 214 (1965) for trypsin, and ibid., 57, 402 (1964) for plasmin, and the results are shown in Table 1
^(1) The concentration of the compounds represented by the general
formula (I) at which the activity of trypsin 0.5 μg to hydrolyze
ptosylarginine methyl ester was 50% inhibited, when treated at 37°

plasmin [2] = biological target: T2, plasmin (Homo sapiens, UniProt P00747); test: Inhibitory activity on plasmin in vitro (euglobulin/streptokinase/fibrinogen system); assay type: biochemical; conditions: human euglobulin, streptokinase, fibrinogen, borate saline buffer pH 7.4, 37° C., 30 minutes; read-out: 50% Inhibition Concentration (molar concentration), Anti-Plasmin
T2 construct: from tissue; host or cells: human euglobulin (plasma fraction), with streptokinase added
Experimental: ^(2) The concentration of the compounds represented by the general
formula (I) at which the activity of plasmin was 50% inhibited, when
reacted in a system comprising 0.1 ml of humaneuglobulin (10 fold
dilution), 0.1 ml of streptokinase (2,000 unit/ml), 0.4 ml of fibrinogen
(4% solution), 0.3 ml of a 0.1M borate saline buffer solution (pH 7.4) an
0.1 ml of a solution of each of the compounds at 37° C. for 30

Solubility in water = assay type: physicochemical

T2 sequence (P00747 581-810 limits assumed): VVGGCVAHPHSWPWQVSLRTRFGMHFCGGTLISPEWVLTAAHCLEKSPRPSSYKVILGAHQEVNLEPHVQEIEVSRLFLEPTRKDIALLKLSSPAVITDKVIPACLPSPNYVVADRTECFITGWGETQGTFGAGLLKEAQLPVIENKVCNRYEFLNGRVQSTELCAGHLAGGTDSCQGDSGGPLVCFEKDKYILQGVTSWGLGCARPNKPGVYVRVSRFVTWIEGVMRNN
T2 sequence (P00747 97-580 limits assumed): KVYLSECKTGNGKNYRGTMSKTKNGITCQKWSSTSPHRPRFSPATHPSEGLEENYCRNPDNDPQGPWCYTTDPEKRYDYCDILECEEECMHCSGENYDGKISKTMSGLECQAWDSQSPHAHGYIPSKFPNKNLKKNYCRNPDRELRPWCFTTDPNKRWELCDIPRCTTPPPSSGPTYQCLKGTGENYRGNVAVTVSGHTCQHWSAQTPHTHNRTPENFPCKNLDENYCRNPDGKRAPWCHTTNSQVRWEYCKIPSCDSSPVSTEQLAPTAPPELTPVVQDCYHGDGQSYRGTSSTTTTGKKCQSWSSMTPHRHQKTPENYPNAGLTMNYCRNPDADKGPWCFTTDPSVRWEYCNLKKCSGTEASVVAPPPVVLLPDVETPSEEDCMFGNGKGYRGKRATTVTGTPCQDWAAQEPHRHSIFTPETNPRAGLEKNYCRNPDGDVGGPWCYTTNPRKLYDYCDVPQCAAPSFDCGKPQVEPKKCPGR

Row | IC50 (trypsin) [nM] | IC50 (plasmin [2]) [nM] | solubility (Solubility in water) [mM] | Structure (SMILES) | anti-plasmin activity (in words) (plasmin [1])
1 | – | – | – | NC[C@H]1CC[C@H](C(=O)O)CC1 [Compound No. 3, trans-4-aminomethylcyclohexanecarboxylic acid] | relatively low activities
2 | 0.5 | 0.45 | 20 | CS(=O)(=O)O.N=C(N)Nc1ccc(C(=O)Oc2ccc(C(=O)OCC(=O)N3CCCCC3)cc2)cc1 [Compound No. 1, piperidinocarbonylmethyl 4-(4-guanidinobenzoyloxy)benzoate mesylate] | –
3 | 0.18 | 0.13 | 20 | N=C(N)Nc1ccc(C(=O)Oc2ccc(C(=O)OCC(=O)NC3CCCCC3)cc2)cc1 [Compound No. 2, N-cyclohexylcarbamoylmethyl 4-(4-guanidinobenzoyloxy)benzoate mesylate] | –
